Test results taken from article PMC7318222, “A Family of Water‐Immiscible, Dipolar Aprotic, Diamide Solvents from Succinic Acid” (Chemsuschem, 2020).

Tests used:
PPARδ = target: T1, PPARδ (Homo sapiens, UniProt Q03181); experiment: PPARδ CALUX reporter gene assay; format: cell-based; set-up: key: –: no effect observed up to the highest test concentration; conditions: PC10, 24 h exposure
T1 construct: expression construct for the full-length human receptor under investigation; expressed in transfected cells; host or cells: human U2-OS cells (ATCC HTB-96), stably transfected
T1 sequence (Q03181 1-441): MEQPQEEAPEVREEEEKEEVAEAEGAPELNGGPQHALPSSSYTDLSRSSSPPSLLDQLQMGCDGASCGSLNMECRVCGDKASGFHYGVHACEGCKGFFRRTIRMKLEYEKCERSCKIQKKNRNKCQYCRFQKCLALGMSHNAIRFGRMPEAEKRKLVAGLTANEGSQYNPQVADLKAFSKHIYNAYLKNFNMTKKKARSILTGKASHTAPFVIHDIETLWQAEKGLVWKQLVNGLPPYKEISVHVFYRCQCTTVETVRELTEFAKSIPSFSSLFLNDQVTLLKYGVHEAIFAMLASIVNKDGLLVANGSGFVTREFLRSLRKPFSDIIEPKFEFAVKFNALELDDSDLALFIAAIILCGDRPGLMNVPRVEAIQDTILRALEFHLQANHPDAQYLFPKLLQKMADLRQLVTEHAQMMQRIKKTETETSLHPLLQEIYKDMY
Text: nitroaniline ≥98.0% was purchased from Alfa Aeser. Cyrene was supplied by Circa group. N-butylpyrrolidinone was supplied by Eastman chemicals. […]
(§1) Polyarylethersulfone of 55,000 Da were obtained from INGE.BASF, Germany. The CALUX cell lines have been described previously.[1] They are based on human U2-OS cells (ATCC, HTB-96) stably transfected with an expression construct for the full-length human receptor under investigation, and a reporter construct consisting of multimerized responsive elements for the cognate receptor coupled to a minimal promoter element (TATA) and a luciferase gene. Cells were maintained as described previously,[2] using cell culture media and supplements from Fisher Scientific as described in the experimental procedures section. […]
(§2) In vitro reporter gene assays
(§3) The automated CALUX assays were carried out similarly as described earlier,[12] with some adaptations. In brief, the assay was performed in CO2 independent medium (Fisher Scientific, […]
(§4) with 30 µl cell suspension/well. After 24 h, exposure medium was prepared. A dilution series in 0.5log unit increments of each test compound (in DMSO) was added to a 96-wells plate containing assay medium (2% v/v). Of this exposure mixture, 30 µl was added to the assay plates containing the CALUX cells, resulting in a final DMSO concentration of 1%. Additionally, DMSO blanks and a full dose response curve of the relevant reference compound were included on each plate. All samples were tested in triplicate. The preparation of the compound dilution series as well as the exposure of the cells were performed on a Hamilton StarLET liquid handling robot coupled to a Cytomat incubator.
Directly after exposure, plates were sealed with non-breathing plate seals (Plate sealer, easy seal […]
After 24 h the exposure medium was removed using an EL406 washer-dispenser (BioTek) and 10 µl/well triton lysisbuffer was added by the EL406.
(§5) Subsequently, the luciferase signal was measured in a luminometer (InfinitePro coupled to a Connect Stacker, both TECAN). In order to be able to detect receptor antagonism, several assays were also performed in antagonistic mode. The assay procedure was as described above, with the only exception that the EC50 concentration of the reference agonist was present during the exposure.
The luminometer data was analysed as follows; the average of the triplicate wells was determined, […]

Nrf2 = Nrf2 CALUX assay (oxidative stress); format: cell-based, human; set-up: key: –: no effect observed up to the highest test concentration; conditions: cell signaling pathway assay, 24 h exposure
Text: Six of the CALUX assays (TCF through p53) detect activation of several cellular signaling pathways, which are indicative of general stress and acute toxicity, but also a range of more specific types of toxicity, including reproductive toxicity. […]
DCM ≥99.5%, chloroform ≥99.5%, DMSO ≥99.0% were purchased from VWR. […]
as §1, §2, §3
as §4, with “supplement (Fisher Scientific, 11574466), 10 U/mL penicillin and 10 µg/mL streptomycin. A cell suspension in assay medium was made of 1 × 10^5cells/mL, and white 384-wells plates were seeded with” for “with”
Directly after exposure, plates were sealed with non-breathing plate seals (Plate sealer, easy seal transparent; Greiner-Bio-One, 676001). After 24 h the exposure medium was removed using an EL406 washer-dispenser (BioTek) and 10 µl/well triton lysisbuffer was added by the EL406.
as §5
The luminometer data was analysed as follows; the average of the triplicate wells was determined, and the average blank (DMSO) value was subtracted. For receptor-based assays the maximum response elicited by the reference compound was set to 100% (full receptor- or pathway activation), and the other values were scaled accordingly. GraphPad Prism was used to fit a sigmoidal curve through the data (four parameters, variable slope). […] For antagonist- and cytotoxicity experiments, PC20 values were determined instead, which was defined as the concentration where the test compound causes a 20% decrease in the basal signal, which was […]
curve, the signal induction above background (DMSO) was determined, and the concentration where the compound elicited a 1.5-fold increase above background was used as LEC.

| LEC PPARδ (PPARδ) | SMILES | LEC Nrf2 (Nrf2) |
| --- | --- | --- |
| – | CCCCN(CC)C(=O)CCC(=O)N(CC)CCCC [EBSA, N,N′‐diethyl‐N,N′‐dibutylsuccindiamide] | – |
|  | CN1CCCC1=O [NMP, N‐methyl‐2‐pyrrolidone, reference compound] | – |
| – | CCCCN(C)C(=O)CCC(=O)N(C)CCCC [MBSA, N,N′‐dimethyl‐N,N′‐dibutylsuccindiamide] | −2.9 Log M |
| – | CCCCN(CCCC)C(=O)CCC(=O)N(CCCC)CCCC [TBSA, N,N,N′,N′‐tetrabutylsuccindiamide] | – |
| −2.3 Log M | CCCCN1CCCC1=O [NBP, N‐Butylpyrrolidinone, reference compound] | – |
